Molecules are shown by their SMILES. pEC50, pIC50: −log10 of the molar value. Calls of active or inactive are those of the source.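 The calls were made as follows: active = compounds giving half or more protection of infected cells from virus-caused growth loss, again on retest; inactive = the rest.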 Where a SMILES comes first, the peptide text is derived from it. The star is where a group is joined. Cbz = O=C(OCc1ccccc1)*; Boc = CC(C)(C)OC(=O)*; OBn = c1ccc(CO*)cc1

The assay has as its system CEM cells HIV-1 protection, formazan growth assay. Nature of the assay: NCI AIDS Antiviral Assay. The following applies: for pIC50: measured here: growth of uninfected CEM cells. An outline of the steps:
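Screen of anti-HIV-1 activity in human CEM cells using a formazan-based growth measurement at five drug concentrations. Hits with 50% or greater protection were repeated, and confirmation required reproducible complete protection.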

Usually pEC50 stands for −log10 of the EC50, conventionally taken in molar units. The term pIC50 denotes the IC50 on a negative log10 scale, so that one unit is a factor of ten. Read a low pIC50 as a large IC50. As for `COC(=O)C1=C(O)C(C(=O)OC)[C@]2(O)[C@@H](C(=O)OC)[C@H]1C[C@@H](c1ccccc1)[C@@H]2C(=O)OC` (stereo partly specified), the pEC50 was less than 3.70 and the negative-log IC50 (pIC50) is 4.73.
The corresponding values for `Cn1cc(NC(=O)c2cc(NC(=O)CCCCCCCCC(=O)Nc3cc(C(=O)Nc4cc(C(=O)NCCC(N)N)n(C)c4)n(C)c3)cn2C)cc1C(=O)NCCC(=N)N` are less than 4.54 and 4.90.
Turning to `O=[N+]([O-])c1ccc(Cl)cc1C1ON=C(c2ccccc2)N1C12CC3CC(CC(C3)C1)C2` (stereo unspecified), the pEC50 was less than 4.00 and the pIC50 was less than 4.00.
For the compound `COc1cc(NCCN=C(N)NC#N)c2ncccc2c1`, the pEC50 was less than 3.90 and the pIC50 was 4.05.
The corresponding values for `COc1ccc(N=C(C)c2ccncc2)cc1` are less than 3.70 and 4.98.
With `CCCc1nc(NC#N)nc(C(=O)Nc2ccccc2)c1CC`, the pEC50 is less than 3.39 and the negative-log IC50 (pIC50) was less than 3.39.
Take `CCC[CH2][Sn]([CH2]CCC)([O]C(=O)c1cccc(F)c1F)[O]C(=O)c1cccc(F)c1F`: the pEC50 is less than 5.02 and the pIC50 was 5.45.
Regarding `C=C(C)[C@@H]1CC[C@]2(C(=O)O)CC[C@]3(C)[C@H](CC[C@@H]4[C@@]5(C)CC[C@H](C(=O)/C=C/c6ccc(O)cc6)C(C)(C)[C@@H]5CC[C@]43C)[C@@H]12`, the pEC50 is less than 3.70 and the negative logarithm of the IC50 (pIC50) is 5.63.
As to `CN(C)N1C(=C(C#N)C#N)C(c2ccccc2)CC1C#N` (stereo unspecified), the pEC50 was less than 3.70 and the negative logarithm of the IC50 (pIC50) is less than 3.70.
In the case of `O=C(CSc1nnc(-c2ccc(N=Cc3ccc(Cl)cc3)cc2)o1)Nc1ccc(Cl)cc1`, the pEC50 was less than 3.57 and the negative-log IC50 (pIC50) was 3.85.
The corresponding values for `O=C(/C=C/c1ccccc1O)c1ccccc1` are less than 4.22 and less than 4.22.
The corresponding values for `CC1(C)CCCC2(C)[C@@H]1CC[C@]13C[C@](C)(CC[C@@H]21)[C@@H]3CO` (stereo partly specified) are less than 4.91 and less than 4.91.
The corresponding values for `O=C(c1ccccc1)C1C(=O)c2ccccc2C1=O` are less than 3.98 and less than 3.98.
Take `CCOC(=O)C(C1=C(O)c2ccccc2C(=O)C1=O)C1=C(O)c2ccccc2C(=O)C1=O`: the pEC50 is less than 3.70 and the negative logarithm of the IC50 (pIC50) is 4.17.
For `CN(C)CCNS(=O)(=O)c1ccc(N)cc1`, the pEC50 is less than 3.70 and the pIC50 is less than 3.70.
For the compound `COc1ccc(C(=O)/C=C/c2ccc(OCCSCCCCCCCCCCSCCOc3ccc(/C=C/C(=O)c4ccc(OC)cc4)cc3)cc2)cc1`, the pEC50 was less than 3.70 and the pIC50 was less than 3.70.
Regarding `Cc1ccc2c(c1)C(=O)C(Cc1ccccc1C(=O)O)C2` (stereo unspecified), the pEC50 is less than 3.70 and the pIC50 is 3.75.
On to `Cc1ccc2oc(=O)c3c(O)c4cccc(OC5OC(C)C6O[C@@H](c7ccccc7)OC6C5OC5OC(C)C(O)C(O)C5O)c4c4oc(=O)c1c2c34` (stereo partly specified), for which the pEC50 is less than 5.14 and the negative-log IC50 (pIC50) was 7.49.
As for `O=C(O)c1c(-c2cccc3ccccc23)sc(-c2cccc3ccccc23)c1C(=O)O`, the outcome was inactive.
On the same count and under the same terms, as for `COc1ccc(Oc2ccccc2N)cc1`, the entry is “inactive”.
`C=CCc1cc(C=C(C#N)C#N)cc(OC)c1O`: the pEC50 is less than 3.70 and the negative-log IC50 (pIC50) is 4.01.
The corresponding values for `O=C1c2ccc(O)cc2OC(c2ccc(O)c(O)c2)C1O` (stereo unspecified) are less than 3.70 and 4.03.
For the compound `O=C(O[C@H]1[C@@H]2C=CO[C@@H](OC3OC(CO)C(O)C(O)C3O)[C@@H]2[C@@]2(CO)O[C@@H]12)c1ccc(O)c(O)c1` (stereo partly specified), the outcome was inactive.
`Cc1ccc(S(=O)(=O)Sc2nnnn2C)cc1`: the pEC50 is less than 3.60 and the pIC50 was 4.27.
Take `C=CCNc1ncnc2sc(SC)nc12`: the pEC50 was less than 3.70 and the pIC50 is 3.97.
The corresponding values for `Cc1ncc([N+](=O)[O-])n1CCNCCCn1ccnc1[N+](=O)[O-]` are less than 3.70 and less than 3.70.
Regarding `COc1cccc(N=NN2CCCC2)c1`, the pEC50 was less than 3.70 and the pIC50 is 4.04.
On to `O=C1CCCCCCCCCCC1CN1CCOCC1` (stereo unspecified), for which the pEC50 is less than 4.14 and the pIC50 was less than 4.14.
Turning to `Cc1[nH]c(=O)[nH]c(=O)c1Cl`, the outcome was inactive.
As for `Cc1ccc(S(=O)(=O)OC2COCOC2C2OCOC3COCOC32)cc1` (stereo unspecified), the pEC50 is less than 3.70 and the pIC50 is less than 3.70.
Consider `CC(C)(C)c1ccc(Br)c(CCC(=O)NO)c1`, for which the result was inactive.
With `CC(C)(C)OC(=O)NC(Cc1ccc(O)cc1)C(=O)N1CCCC1C(=O)O` (stereo not drawn) (Boc-Tyr-Pro-OH; configuration not given here), the pEC50 is less than 3.18 and the pIC50 is 3.57.
The corresponding values for `CC1(c2ccc(Cl)cc2)c2ccccc2C(=O)N1CCCN1C(=O)c2ccccc2C1=O` (stereo unspecified) are less than 3.70 and 3.71.
Consider `CCC1=NC(N/N=C/c2ccccc2O)=N/C1=C\c1ccccc1O`, for which the pEC50 is less than 4.30 and the negative logarithm of the IC50 (pIC50) is 5.04.
On to `C[n+]1ccccc1/C=N/O`, for which the pEC50 was less than 3.70 and the pIC50 was less than 3.70.
With `CC1C2C=C(O)C(=O)C(C2=O)C1c1ccccc1` (stereo unspecified), the pEC50 is less than 3.13 and the negative logarithm of the IC50 (pIC50) was 3.85.
For the compound `COc1ccc(NC(=S)/C(=C(\[O-])c2ccc([N+](=O)[O-])cc2)[n+]2ccc(C(C)C)cc2)cc1`, the pEC50 was less than 3.70 and the negative-log IC50 (pIC50) is less than 4.00.
Consider `O=C1CC(c2ccc(O)cc2)C2(O1)C(=O)OC1C(O)COC12O` (stereo unspecified), for which the result was inactive.
As to `CCCCCC[P+](c1ccccc1)(c1ccccc1)c1ccccc1`, the pEC50 was less than 3.70 and the pIC50 was 6.13.
The corresponding values for `C(=C\c1cc(-c2ccc3ccccc3n2)nc2ccc3ccccc3c12)/c1ccc2ccccc2n1` are less than 3.70 and less than 3.70.
On to `CCCCC(CCCCCC(CCCC)C1NC(C)Cc2cc(OC)c(OC)cc21)C1NC(C)Cc2cc(OC)c(OC)cc21` (stereo unspecified), for which the pEC50 is less than 3.70 and the pIC50 is 6.35.
Take `N/C(=N\N=C/c1cc(Cl)cc(Cl)c1O)NO`: the result was inactive.
The same measure, in the same setting: as for `O=C(CC(=O)N1N=C(N(c2ccccc2)c2ccccc2)CC1c1ccccc1)Nc1ccc(Cl)cc1` (stereo unspecified), the entry is “inactive”.
In the case of `CCOc1ccc(N=C2NC(=O)C(CC(=O)Nc3ccccc3[N+](=O)[O-])S2)cc1` (stereo unspecified), the pEC50 was less than 3.50 and the pIC50 is less than 3.50.
As for `CC(/C=C/C=C/C=C/C=C/C=C/C(O)=C1/C(=O)C(CCC(=O)O)N(C)C1=O)=C\C(C)C(OC1CC(O)C(O)C(C)O1)C(C)C` (stereo unspecified), the outcome was inactive.
With `Cn1c(NC(=O)NC23CC4CC(CC(C4)C2)C3)nc2ccccc21`, the pEC50 is less than 3.70 and the pIC50 was less than 3.70.
For the compound `O/N=C1\CSc2ccccc2C1`, the pEC50 is less than 3.70 and the pIC50 was less than 3.70.
Consider `COC(=O)C1(C(=O)OC)N=C(C)OC1C(C)C` (stereo unspecified), for which the pEC50 was less than 3.70 and the pIC50 was less than 3.70.
As for `OC1(c2ccccc2)c2ccccc2Oc2ccccc21`, the pEC50 was less than 3.70 and the pIC50 was 4.76.
The corresponding values for `Cc1ccc(S(=O)(=O)N/N=C2/C3CC4CCC2C4C3)cc1` (stereo unspecified) are less than 3.70 and less than 3.70.
The corresponding values for `O=C(Cc1ccccc1)NN1C(=O)C(Cl)C1c1ccccc1Cl` (stereo unspecified) are less than 4.54 and less than 4.54.
Consider `CN(C)c1ccc(/C=C2\CCOC2=O)cc1`, for which the pEC50 was less than 4.76 and the pIC50 was less than 4.76.
Take `FC1(F)SC2CCCCCCCCCCC2C1(F)F` (stereo unspecified): the pEC50 was less than 3.70 and the pIC50 was 4.04.
The corresponding values for `COC(=O)/C(Cl)=C1/CC1COCc1ccccc1` (stereo unspecified) are less than 3.73 and 3.97.
Regarding `COC(=O)C1=CCON(c2ccccc2)C1c1ccccc1` (stereo unspecified), the pEC50 was less than 4.34.
Turning to `O=C1CCCCC/C1=C\c1ccccc1`, the pEC50 was less than 3.70 and the negative logarithm of the IC50 (pIC50) was 4.28.
Consider `Nc1ccc2c(c1)CC1c3ccccc3C(C2)c2ccccc21`, for which the outcome was inactive.
With `CC1(C)CCOC(=O)C(Cl)CC1Cl` (stereo unspecified), the pEC50 is less than 3.70 and the pIC50 was less than 3.70.
Consider `COC(=O)c1cc(C(=CCC2OCCO2)c2cc(Cl)c(OC)c(C(=O)OC)c2)cc(Cl)c1OC`, for which the negative logarithm of the EC50 (pEC50) is less than 4.28 and the pIC50 was 4.41.
`CC1=CCC23C(C1)OC(Br)(C=CC2(C)O)C3(C)C` (stereo unspecified): the outcome was inactive.
Take `Cc1nc2cccc([N+](=O)[O-])c2c(NCCCN(C)C)c1C`: the pEC50 is less than 3.70 and the pIC50 is 4.39.
The corresponding values for `COc1ccc(OC)c2c(Nc3ccc(S(=O)(=O)O)c4cc(S(=O)(=O)O)cc(S(=O)(=O)O)c34)cc(C)nc12` are less than 3.70 and less than 3.70.
With `O=C(O)Cc1sc(=O)[nH]c1O`, the pEC50 is less than 3.70 and the negative-log IC50 (pIC50) was less than 3.70.
For `Cc1cn(COCCOS(C)(=O)=O)c(=O)[nH]c1=O`, the pEC50 was less than 3.70 and the negative logarithm of the IC50 (pIC50) was less than 3.70.
On to `C[S+](C)C1(c2ccccc2)C(=O)c2ccccc2C1=O`, for which the pEC50 is less than 3.24 and the pIC50 is less than 3.24.
Consider `O=C1C2CN(Cc3ccccc3)CC1CN(CC1CC1)C2`, for which the pEC50 is less than 3.62 and the pIC50 was less than 3.62.
As to `COC(=O)C(Cc1ccc(O)cc1)NC(=O)C(CC(=O)OCc1ccccc1)NC(=O)OCc1ccccc1` (stereo unspecified) (Cbz-Asp(OBn)-Tyr-OMe; configuration not given here), the pEC50 is less than 3.70 and the negative-log IC50 (pIC50) was 4.51.
The corresponding values for `CCOC(=O)C1=C(C)C2C=C(c3cccs3)CC(c3ccc(Cl)cc3)=C2OC1=O` (stereo unspecified) are less than 3.70 and 4.04.
The corresponding values for `CCOC(=O)/C(C#N)=C\C=C1/C=CNC2=NCCN21` are 4.71 and 4.61.
On to `Cc1no[n+]([O-])c1/C=N/NS(=O)(=O)c1ccccc1`, for which the pEC50 was less than 3.05 and the pIC50 was 3.39.
The corresponding values for `C=C[C@@H](C)[C@@H](O[Si](C)(C)C(C)(C)C)c1c(O)c2c(c3c(CCC)cc(=O)oc13)OC(C)(C)C=C2` are less than 3.70 and 3.98.
Take `O=C(C(O)c1cn(Cc2ccccc2)c2ccccc12)N1CCCCC1` (stereo unspecified): the outcome was inactive.
